Data published in article PMC4793209 (2016).
Blank lines part the entries; values can stand above or below the compound they belong to.

What was measured:
Experiment in all cases: in-line probing
[1] = system: 108 yjdF RNA (WT, B. subtilis) (RNA, riboswitch) GGUAUAUGGUAAAGAAUGAAAAAACACGAUUCGGUUGGUAGUCCGGAUGCAUGAUUGAGAAUGUCAGUAACCUUCCCCUCCUCGGGAUGUCCAUCAUUCUUUAAUAUCU; conditions: 100 mM KCl, 20 mM MgCl2, 50 mM Tris-HCl pH 8.3, 25 °C
[2] = system: 107 yjdF RNA (B. endophyticus) (RNA, riboswitch) GGUAUAUGAAAUGAAAAAACACAAUUCGGUUGGUAGUCCGGAUGCAUCAUAAUAAAUGAAUGUCAGUAGCCUUCCCCUCCUCGGGAUGUCCAUCAUUUCAUAGUAUUUU; conditions: 100 mM KCl, 20 mM MgCl2; 50 mM Tris-HCl pH 8.3, 25 °C
[3] = system: 108 yjdF M3 (RNA, riboswitch) GGUAUAUGGUAAAGAAUGAAAAAACACGAUUCGGUUGGUCGUCCGGAUGCAUGAUUGAGAAUGUCAGUAACCUUCCCCUCCUCGGGAUGUCCAUCAUUCUUUAAUAUCU; conditions: 100 mM KCl, 20 mM MgCl2; 50 mM Tris-HCl pH 8.3, 25 °C
[4] = system: 108 yjdF M1 (RNA, riboswitch) GGUAUAUGGUAAACUAUGAAAAAACACGAUUCGGUUGGUAGUCCGGAUGCAUGAUUGAGAAUGUCAGUAACCUUCCCCUCCUCGGGAUGUCCAUCAUUCUUUAAUAUCU; conditions: 100 mM KCl, 20 mM MgCl2; 50 mM Tris-HCl pH 8.3, 25 °C; affinity reduced against WT
[5] = system: 108 yjdF M2 (RNA, riboswitch) GGUAUAUGGUAAACUAUGAAAAAACACGAUUCGGUUGGUAGUCCGGAUGCAUGAUUGAGAAUGUCAGUAACCUUCCCCUCCUCGGGAUGUCCAUCAUAGUUUAAUAUCU; conditions: 100 mM KCl, 20 mM MgCl2; 50 mM Tris-HCl pH 8.3, 25 °C; near WT affinity
[6] = 36-48 h, RNA <5 nM, apparent, 10 µM or poorer
[7] = apparent, unit in unseen head of Table S1

KD [1, 6]: > 10000 nM
SMILES: CC(=O)Oc1ccccc1C(=O)O

binding ([1]; apparent): yes
SMILES: Cc1nccc2c1[nH]c1ccccc12

KD ([1]; 36-48 h, RNA <5 nM, apparent): 4.2 nM
SMILES: C[n+]1cc2c3c(ccc2c2ccc4cc5c(cc4c21)OCO5)OCO3

KD [1, 6]: > 10000 nM
SMILES: O=C(O)/C=C/c1ccc(O)c(O)c1

binding [2]: yes
KD ([1]; 36-48 h, RNA <5 nM, apparent): 2.5 nM
SMILES: COc1ccc2c(c[n+](C)c3c4cc5c(cc4ccc23)OCO5)c1OC

binding [3]: no
binding ([1]; riboflavin 0-10 µM, weaker than proflavine): yes
SMILES: Cc1cc2nc3c(=O)[nH]c(=O)nc-3n(C[C@H](O)[C@H](O)[C@H](O)CO)c2cc1C

KD ([1]; 36-48 h, RNA <5 nM, apparent): 800 nM
SMILES: Cc1cc2nc3c(=O)[nH]c(=O)nc-3n(C)c2cc1C

binding [3]: no
binding [4]: weak
KD ([1]; 36-48 h, RNA <5 nM, apparent): 6.1 nM
binding [5]: yes
SMILES: Nc1ccc2cc3ccc(N)cc3nc2c1

KD [1, 7]: > 100
SMILES: C[C@H](CCC(=O)O)[C@H]1CC[C@H]2[C@@H]3CC[C@@H]4C[C@H](O)CC[C@]4(C)[C@H]3C[C@H](O)[C@]12C

KD [1, 7]: > 100
SMILES: C[C@H](CCC(=O)NCCS(=O)(=O)O)[C@H]1CC[C@H]2[C@@H]3CC[C@@H]4C[C@H](O)CC[C@]4(C)[C@H]3C[C@H](O)[C@]12C

KD [1, 7]: > 100
SMILES: C[C@H](CCC(=O)O)[C@H]1CC[C@H]2[C@@H]3[C@H](O)C[C@@H]4C[C@H](O)CC[C@]4(C)[C@H]3CC[C@]12C

binding ([1]; apparent): yes
SMILES: Cc1cc(N)c2ccccc2[n+]1CCCCCCCCCC[n+]1c(C)cc(N)c2ccccc21

KD [1, 6]: > 10000 nM
SMILES: O=C(O)/C=C/c1ccccc1

KD ([1]; 36-48 h, RNA <5 nM, apparent): ~ 1 µM
SMILES: CCn1cc(C(=O)O)c(=O)c2ccc(C)nc21
